Laboratory results taken from patent publication US8759405B2, “Stevia extract or steviol for hair care” (DSM IP Assets B.V., priority 2009, dated 2014).
Entries after “also recorded” stand apart in the source; their conditions may differ.

Assays:
aged C57B1/6J mice = assay: Chronic steviol treatment, subjective rating of fur and skin condition pre- and post-treatment; type: in vivo; details: 120 mg/kg/d in diet, 6 weeks, pre- vs post-treatment
Description: FIG. 2 Effects of chronic steviol treatment (120 mg/kg, p.o., 6 weeks) on (a) fur colour and (b) hair loss in aged C57B1/6J mice. […] [table] Female, aged, C57B1/6J mice (22-24 months of age) were assessed for their fur quality at the start and end of a six-week study. Prior to commencement of treatment, photographs were taken of all mice whilst under light anaesthesia (2.2-2.4% isofluorane). Mice were then fed either placebo diet or diet supplemented with steviol (120 mg/kg/d) for six weeks. At the end of the six week treatment phase, mice were again anaesthetised and further photographs were taken. Eleven participants with extensive experience of performing experimental studies using mice were asked to complete the same questionnaire (see Table 1), to enable subjective rating of a number of parameters of fur quality and of the appearance of skin wounds, by assessing the photographs taken before and after treatment. Statistical analyses were performed using Prism 5 (GraphPad Software, La Jolla, Calif., USA) and comprised two-way ANOVA (test factors: Time and Treatment), followed by Bonferroni post-hoc tests, where appropriate.

Human hair follicles [1] = assay: Growth of human hair follicle (length measurements); type: cell-based
Description: (§1) Human hair follicles were obtained from human skin fragments (obtained by plastic surgery) and grown in supplemented William's E medium supplemented with penicillin/streptomycin, L-glutamine (2 mM/L), insulin (10 μg/mL and hydrocortisone (8 nM/L). Hair follicle growth was assessed via length measurements (days 0, 4, and 7). Triiodothyronine (T3, 30 μM/L) was used as positive control. The effect of steviol (at 0.625-5 μg/mL) was tested in parallel. On day 7, RNA was extracted from hair follicles that had been subjected to different treatments (control, T3, steviol). RNA was processed for Affymetrix® DNA microarray analysis in order to identify effects of compounds on gene expression. Where appropriate, RNA expression levels were further quantified by RT-PCR using the ABI 7900 Taqman instrumentation.

Human hair follicles [2] = assay: Gene expression in human hair follicles by DNA microarray analysis; type: cell-based
Description: as §1, with “instrumentation. […] Global effects of steviol on gene expression were determined by transcriptomics i.e. DNA microarray analysis. The obtained data were processed with Genedata software tools. […] Thus another aspect of this invention is a method of up-regulating at least one of the genes listed in Table 3 comprising administering steviol and observing a hair growth effect.” for “instrumentation.”

human hair follicle = assay: mRNA level of marker genes in human hair follicle by RT-PCR; type: cell-based
Description: as §1, with “The effect of steviol (at 0.625-5 μg/mL) was tested in parallel.” left out, “instrumentation. […] The mRNA level of some marker genes involved in growth and/or differentiation of cells in the skin and in hair follicle was further determined by RT-PCR and is shown in Table 4.” for “instrumentation.”

whole mouse skin = assay: Gene expression in whole mouse skin by quantitative RT-PCR after dietary supplementation; type: in vivo, mice; details: eight weeks
Description: The effect of steviol on gene expression was also analysed in whole mouse skin (also containing hair follicles). To this aim, mice were fed a normal diet or a diet supplemented with steviol (see also relevant data above). After eight weeks of supplementation, mice were sacrificed and skin was isolated and freed from hair. Quantitative RT-PCR was performed for selected genes using the same technology as described for hair follicles (see above). Remarkably, we identified changes in expression levels of some genes that are involved in skin physiology and homeostasis.

C=C1C[C@@]23CC[C@H]4[C@@](C)(CCC[C@@]4(C)C(=O)O)[C@@H]2CC[C@]1(O)C3 [Steviol, steviol]
fur colour (greying; subjective rating score) (aged C57B1/6J mice): significantly improved hair colour (i.e. reduced greying); also recorded: significantly improved fur colour
hair loss (subjective rating score) (aged C57B1/6J mice): significantly improved (i.e. reduced) hair loss
hair loss (subjective rating score) (aged C57B1/6J mice; listed as steviol): significant reduction of hair loss
Growth (% of control) (Human hair follicles [1]; 0.625 μg/mL): 122 % of control
Growth (% of control) (Human hair follicles [1]; 1.25 μg/mL): 121 % of control
Growth (% of control) (Human hair follicles [1]; 2.5 μg/mL): 113 % of control
Growth (% of control) (Human hair follicles [1]; 5 μg/mL): 117 % of control
elongation of hair follicles (Human hair follicles [1]; 0.625-5 μg/mL): dose-dependently favoured the elongation of hair follicles
Ratio of steviol-treated/untreated: CASP8 and FADD-like apoptosis regulator (Human hair follicles [2]; day 7, microarray): 2.58
Ratio of steviol-treated/untreated: Chemokine (C-X-C motif) ligand 12 (stromal cell-derived factor 1) (Human hair follicles [2]; day 7, microarray): 2.22
Ratio of steviol-treated/untreated: Collagen, type IV, alpha 6 (Human hair follicles [2]; day 7, microarray): 2.04
Ratio of steviol-treated/untreated: Fibroblast growth factor 7 (keratinocyte growth factor) (Human hair follicles [2]; day 7, microarray): 2.91
Ratio of steviol-treated/untreated: Insulin-like growth factor 1 receptor (Human hair follicles [2]; day 7, microarray): 2.00
Ratio of steviol-treated/untreated: Integrin, alpha 6 (Human hair follicles [2]; day 7, microarray): 2.15
Ratio of steviol-treated/untreated: TIMP metallopeptidase inhibitor 3 (Human hair follicles [2]; day 7, microarray): 2.32
Ratio of steviol-treated/untreated: Topoisomerase (DNA) II alpha 170 kDa (Human hair follicles [2]; day 7, microarray): 2.45
Ratio of steviol-treated/untreated: Transmembrane protein with EGF-like and two follistatin-like domains 2 (Human hair follicles [2]; day 7, microarray): 3.10
biological pathways whose gene expression is modulated (Human hair follicles [2]; microarray, Genedata pathway mapping): modulated gene expression of the pathways of epidermal development, ectoderm development and keratinocyte differentiation with a high statistical significance
Fold changes (versus control): Integrin alpha-6 (human hair follicle; 0.625 μg/mL): 1.62 ± 0.06 fold
Fold changes (versus control): COX-2 (human hair follicle; 1.25 μg/mL): 0.46 ± 0.17 fold
Fold changes (versus control): HO-1 (human hair follicle; 1.25 μg/mL): 0.64 ± 0.08 fold
Fold changes (versus control): Involucrin (human hair follicle; 1.25 μg/mL): 0.51 ± 0.22 fold
Fold changes (versus control): Keratin 6 (human hair follicle; 10 μg/mL): 1.33 ± 0.11 fold
% of control (based on fold-change): CXC10 (whole mouse skin): 132 ± 50 % of control
% of control (based on fold-change): IL-6 (whole mouse skin): 130 ± 31 % of control
% of control (based on fold-change): MMP-8 (whole mouse skin): 73 ± 23 % of control
% of control (based on fold-change): MMP-13 (whole mouse skin): 53 ± 9 % of control
% of control (based on fold-change): PPAR-δ (whole mouse skin): 60 ± 37 % of control
